Laboratory results reported in paper PMC9011347, “Small-Molecule Inhibitors Targeting Lipolysis in Human Adipocytes” (Journal of the American Chemical Society, 2022).
Where “and” joins values, the source holds several entries; their conditions need not be identical. Equal values may be shown once. Read-outs that look alike come from different tables or passages of the source.

Columns and labels:
human ATGL (aa 1–288) = target: T1, human ATGL (aa 1–288) (Homo sapiens, UniProt Q96AD5); assay: TAG hydrolase assay, wild-type and chimeric ATGL variants in Expi293 lysates; format: biochemical
T1 construct: human ATGL (aa 1–288); host or cells: Expi293 cells, crude lysate
T1 sequence (Q96AD5 1-288): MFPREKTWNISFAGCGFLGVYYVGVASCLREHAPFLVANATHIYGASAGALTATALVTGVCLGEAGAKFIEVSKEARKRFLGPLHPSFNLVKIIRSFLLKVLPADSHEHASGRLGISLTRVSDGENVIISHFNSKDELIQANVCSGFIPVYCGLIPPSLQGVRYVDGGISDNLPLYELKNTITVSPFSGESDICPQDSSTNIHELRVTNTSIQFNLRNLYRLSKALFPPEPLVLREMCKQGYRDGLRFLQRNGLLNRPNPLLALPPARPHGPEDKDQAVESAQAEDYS
Description: (§1) Since experimental three-dimensional (3D) structures for ATGL are currently not available, we utilized chimeric variants of mouse and human ATGL for the identification of binding sites. The constructs c1–c9 (Figure 5a) comprised the N-terminal […] of ATGL, which are sufficient to retain enzymatic activity.[50] In variants c1 and c2, exchange of the N-terminal 158 aa between human and mouse ATGL switched inhibitor reactivity.
Figure 5 Analysis of chimeric proteins comprising human and mouse ATGL. (a) Schematic view of the minimal active domain of wild-type and chimeric ATGL variants (c1–c9). Nonidentical aa are indicated in blue and red for mouse and human ATGL, respectively. ATGL variants were expressed in Expi293 cells and TAG hydrolase activity was determined in cell lysates in the presence or absence of NG-497 (10 μM) and Atglistatin (10 μM), respectively. Inhibition of ATGL variants by respective inhibitors (tick mark) and lack of inhibition (cross) is indicated at the right edge. The expression of all ATGL variants was confirmed by Western blotting analysis (Figure S6). […]
(§2) Expression of recombinant ATGL constructs and preparation of cell lysates. […] Protein concentrations were determined using Bio-Rad protein assay (Bio-Rad 785, Bio-Rad Laboratories, Munich, Germany) using BSA as standard. […]

[1] = target: T2, c1 (human aa 1–158 and mouse aa 159–288) (Homo sapiens, UniProt Q96AD5, L232M/Q250R/R257Q); assay: TAG hydrolase assay, chimeric ATGL variants; format: biochemical; conditions: chimeric variant c1
T2 construct: c1 (human aa 1–158 and mouse aa 159–288); host or cells: Expi293 cells, crude lysate
T2 sequence (Q96AD5 with tags, fused parts or gaps L232M/Q250R/R257Q): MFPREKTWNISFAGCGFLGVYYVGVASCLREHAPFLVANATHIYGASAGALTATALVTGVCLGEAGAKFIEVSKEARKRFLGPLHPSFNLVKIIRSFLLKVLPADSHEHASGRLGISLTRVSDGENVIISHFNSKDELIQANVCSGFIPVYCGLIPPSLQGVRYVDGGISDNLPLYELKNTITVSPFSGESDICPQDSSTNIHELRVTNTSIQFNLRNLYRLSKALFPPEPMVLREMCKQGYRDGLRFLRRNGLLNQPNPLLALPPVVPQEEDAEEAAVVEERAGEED
Description: as §1
(§3) Figure 5 Analysis of chimeric proteins comprising human and mouse ATGL. (a) Schematic view of the minimal active domain of wild-type and chimeric ATGL variants (c1–c9). Nonidentical aa are indicated in blue and red for mouse and human ATGL, respectively. ATGL variants were expressed in Expi293 cells and TAG hydrolase activity was determined in cell lysates in the presence or absence of NG-497 (10 μM) and Atglistatin (10 μM), respectively. Inhibition of ATGL variants by respective inhibitors (tick mark) and lack of inhibition (cross) is indicated at the right edge. The expression of all ATGL variants was confirmed by Western blotting analysis (Figure S6). (b) Dose-dependent inhibition of human ATGL (aa 1–288) and c1 (human aa 1–158 and mouse aa 159–288) by NG-497. (c) Dose-dependent inhibition of mouse ATGL (aa 1–288) and c2 (mouse aa 1–158 and human aa 159–288) by Ai. IC50 values are shown in the insets. Data are presented as relative inhibition of respective DMSO controls and are indicated as mean ± SD. (d) 3D homology model of the minimal active domain of mouse ATGL (M1–L254) depicted as a cartoon. Residues 1–178 are in blue, and residues 179–254 are in gray. S47 and D166 comprising the active site are represented as green sticks. T101, C106, R109, N111, and S133 are colored in orange, A60, N68, I69, T93, C97, and T146 are colored in magenta. TEXT PRINTED IN THE PICTURE: (b) NG-497: IC50 [μM] (human): 1.3±0.1; IC50 [μM] (c1): 1.3±0.1 | (b) Ai: IC50 [μM] (human): n.det.; IC50 [μM] (c1): n.det. | (c) NG-497: IC50 [μM] (mouse): n.det.; IC50 [μM] (c2): n.det. | (c) Ai: IC50 [μM] (mouse): 2.5±0.3; IC50 [μM] (c2): 2.4±0.1 […]
(§4) Experimental details, materials, and methods
(§5) Expression of recombinant ATGL constructs and preparation of cell lysates. Expi293 cells were cultivated in Expi293 Expression Medium (GIBCO, Thermo Fisher Scientific, Waltham, USA) at standard conditions (37°C, 5% CO2, 95% humidified atmosphere, 125 rpm). DNA constructs containing ATGL from different species and chimeric ATGL variants in pcDNA3.1(+)myc-His C Vector were obtained from BioCat GmbH (Heidelberg, Germany). […] Protein concentrations were determined using Bio-Rad protein assay (Bio-Rad 785, Bio-Rad Laboratories, Munich, Germany) using BSA as standard. […]

[2] = target: T3, c2 (mouse aa 1–158 and human aa 159–288) (Mus musculus, UniProt Q8BJ56, M232L/Q257R/R250Q); assay: TAG hydrolase assay, chimeric ATGL variants; format: biochemical; conditions: chimeric variant c2
T3 construct: host or cells: Expi293 cells, cell lysate
T3 sequence (Q8BJ56 with tags, fused parts or gaps M232L/R250Q/Q257R): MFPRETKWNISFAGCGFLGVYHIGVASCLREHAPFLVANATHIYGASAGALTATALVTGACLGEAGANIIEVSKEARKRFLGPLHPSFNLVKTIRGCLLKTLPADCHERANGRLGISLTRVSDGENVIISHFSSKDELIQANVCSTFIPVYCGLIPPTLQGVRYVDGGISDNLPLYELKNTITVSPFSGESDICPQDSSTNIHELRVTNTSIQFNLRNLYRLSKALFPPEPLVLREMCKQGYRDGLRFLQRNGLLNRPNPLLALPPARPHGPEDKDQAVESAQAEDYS
Description: as §1, §3, §4, §5

[3] = target: T4, c9 (mouse ATGL with humanized T101, C106, R109, N111, S133) (Mus musculus, UniProt Q8BJ56, C106S/N111S/R109H/S133N/T101V); assay: TAG hydrolase assay, chimeric ATGL variants; format: biochemical, human and mouse; conditions: variant c9, NG-497 (10 μM) or Atglistatin (10 μM)
T4 construct: host or cells: Expi293 cells, cell lysate
T4 sequence (Q8BJ56 1-288 T101V/C106S/R109H/N111S/S133N limits assumed): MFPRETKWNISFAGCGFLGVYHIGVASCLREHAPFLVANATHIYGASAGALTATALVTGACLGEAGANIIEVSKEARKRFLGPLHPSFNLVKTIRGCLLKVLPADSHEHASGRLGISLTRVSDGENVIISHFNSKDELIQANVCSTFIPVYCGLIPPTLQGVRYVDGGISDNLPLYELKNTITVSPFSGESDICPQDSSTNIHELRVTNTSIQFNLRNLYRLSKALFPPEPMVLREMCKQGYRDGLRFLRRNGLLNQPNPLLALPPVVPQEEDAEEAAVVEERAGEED
Method: as §3, with “gray.” for “gray. S47 and D166 comprising the active site are represented as green sticks. T101, C106, R109, N111, and S133 are colored in orange, A60, N68, I69, T93, C97, and T146 are colored in magenta. TEXT PRINTED IN THE PICTURE: (b) NG-497: IC50 [μM] (human): 1.3±0.1; IC50 [μM] (c1): 1.3±0.1 | (b) Ai: IC50 [μM] (human): n.det.; IC50 [μM] (c1): n.det. | (c) NG-497: IC50 [μM] (mouse): n.det.; IC50 [μM] (c2): n.det. | (c) Ai: IC50 [μM] (mouse): 2.5±0.3; IC50 [μM] (c2): 2.4±0.1”
as §2

Row | Structure (SMILES) | IC50 (human ATGL (aa 1–288)) | IC50 [1] | IC50 ([2]; read-out: IC50) | inhibition of TAG hydrolase activity [3] | IC50 (human ATGL (aa 1–288); read-out: IC50) [nM] | IC50 ([1]; read-out: IC50) [nM] | IC50 [2]
1 | CN(C)C(=O)Nc1cccc(-c2ccc(N(C)C)cc2)c1 [Atglistatin, reference compound] | ineffective | ineffective | ~2500 nM and 2400 nM | preserved Ai binding | – | – | –
2 | CCOc1ccc(-c2cc(OC)cc(C(=O)OC(C)C)n2)cc1 [NG-497] | – | – | – | ineffective | 1300 | 1300 | ineffective
